Test results as given in ChEMBL document CHEMBL4138105, “LL-37-derived short antimicrobial peptide KR-12-a5 and its d-amino acid substituted analogs with cell selectivity, anti-biofilm activity, synergistic effect with conventional antibiotics, and anti-inflammatory activity” (Eur J Med Chem, 2017).
≈ marks a conversion by molar mass, not a printed value. Calls of active or inactive are those of the source. The calls are words filed in the database; no cut-off is given here.

Key:
[1] = system: Pseudomonas aeruginosa; test: Potency index, ratio of LL-37 MIC to compound MIC for multidrug-resistant Pseudomonas aeruginosa CCARM 2109; format: functional
[2] = system: Staphylococcus aureus; test: Potency index, ratio of LL-37 MIC to compound MIC for methicillin resistant Staphylococcus aureus CCARM 3090; format: functional
[3] = system: Staphylococcus aureus; test: Potency index, ratio of LL-37 MIC to compound MIC for methicillin resistant Staphylococcus aureus CCARM 3095; format: functional
[4] = Therapeutic index, ratio of MHC10 for human RBC to MIC for Escherichia coli KCTC 1682; format: toxicity; settings: red blood cells (RBC), pooled result: one value given for 6 cell lines, strains, targets or settings, read-out: TI
[5] = system: Staphylococcus aureus; test: Potency index, ratio of melittin MIC to compound MIC for methicillin resistant Staphylococcus aureus CCARM 3090; format: functional
[6] = system: Staphylococcus aureus; test: Antibacterial activity against Staphylococcus aureus KCTC 1621 in presence of 20% human serum after 24 hrs; format: functional; settings: KCTC 1621, 24 h
[7] = system: Staphylococcus aureus; test: Antibacterial activity against methicillin resistant Staphylococcus aureus CCARM 3095 after 24 hrs; format: functional; settings: CCARM 3095, 24 h
[8] = system: Escherichia coli; test: Antibacterial activity against Escherichia coli KCTC 1682 after 24 hrs; format: functional; settings: KCTC 1682, 24 h
[9] = system: Escherichia coli; test: Antibacterial activity against Escherichia coli KCTC 1682 in presence of 6 uM NH4Cl after 24 hrs; format: functional; settings: KCTC 1682, 24 h
[10] = system: Enterococcus faecium; test: Antibacterial activity against Vancomycin-resistant Enterococcus faecium ATCC 51559 after 24 hrs; format: functional; settings: ATCC 51559, 24 h
[11] = system: Pseudomonas aeruginosa; test: Potency index, ratio of LL-37 MIC to compound MIC for multidrug-resistant Pseudomonas aeruginosa CCARM 2095; format: functional
[12] = system: Pseudomonas aeruginosa; test: Potency index, ratio of melittin MIC to compound MIC for multidrug-resistant Pseudomonas aeruginosa CCARM 2095; format: functional
[13] = system: Pseudomonas aeruginosa; test: Antibiofilm activity against multidrug-resistant Pseudomonas aeruginosa CCARM 2095 after 24 hrs by crystal violet staining based assay; format: functional
[14] = system: Pseudomonas aeruginosa; test: Antibacterial activity against Pseudomonas aeruginosa KCTC 1637 after 24 hrs; format: functional; settings: KCTC 1637, 24 h
[15] = system: Staphylococcus aureus; test: Antibacterial activity against Staphylococcus aureus KCTC 1621 after 24 hrs; format: functional; settings: KCTC 1621, 24 h
[16] = system: Staphylococcus aureus; test: Ratio of MIC for Staphylococcus aureus KCTC 1621 in presence of 20% human serum to MIC for Escherichia coli KCTC 1682 in presence of 20% human serum; format: functional
[17] = system: RAW264.7; test: Anti-inflammatory activity in mouse RAW264.7 cells assessed as reduction in LPS-induced nitric oxide production at 10 to 20 uM after 24 hrs by Griess assay; format: functional, cell-based
[18] = system: Staphylococcus aureus; test: Antibacterial activity against Staphylococcus aureus KCTC 1621 in presence of 6 uM NH4Cl after 24 hrs; format: functional; settings: KCTC 1621, 24 h
[19] = system: Staphylococcus aureus; test: Antibacterial activity against Staphylococcus aureus KCTC 1621 assessed as cytoplasmic membrane depolarization at 2 times MIC by disC3-5 dye based fluorescence assay; format: functional, organism-based
[20] = system: Pseudomonas aeruginosa; test: Synergistic antibacterial activity against multidrug-resistant Pseudomonas aeruginosa CCARM 2095 after 72 hrs in presence of oxacillin by chequerboard assay; format: functional
[21] = system: Staphylococcus epidermidis; test: Antibacterial activity against Staphylococcus epidermidis KCTC 1917 after 24 hrs; format: functional; settings: KCTC 1917, 24 h
[22] = system: Bacillus subtilis; test: Antibacterial activity against Bacillus subtilis KCTC 3068 after 24 hrs; format: functional; settings: KCTC 3068, 24 h
[23] = system: Staphylococcus aureus; test: Antibacterial activity against methicillin resistant Staphylococcus aureus CCARM 3090 after 24 hrs; format: functional; settings: CCARM 3090, 24 h
[24] = system: Escherichia coli; test: Antibacterial activity against Escherichia coli KCTC 1682 in presence of 2.5 mM CaCl2 after 24 hrs; format: functional; settings: KCTC 1682, 24 h
[25] = system: Staphylococcus aureus; test: Potency index, ratio of melittin MIC to compound MIC for methicillin resistant Staphylococcus aureus CCARM 3095; format: functional
[26] = system: RAW264.7; test: Anti-inflammatory activity in mouse RAW264.7 cells assessed as reduction in LPS-induced IL-6 mRNA expression at 10 uM after 3 hrs by RT-PCR analysis; format: functional, cell-based
[27] = system: Salmonella typhimurium; test: Antibacterial activity against Salmonella typhimurium KCTC 11926 after 24 hrs; format: functional, Salmonella enterica subsp. enterica serovar Typhimurium; settings: Salmonella enterica, KCTC 11926, 24 h
[28] = system: Pseudomonas aeruginosa; test: Antibacterial activity against multidrug-resistant Pseudomonas aeruginosa CCARM 2095 after 24 hrs; format: functional; settings: CCARM 2095, 24 h
[29] = system: Pseudomonas aeruginosa; test: Potency index, ratio of LL-37 MBIC90 to compound MBIC90 for antibiofilm activity against multidrug-resistant Pseudomonas aeruginosa CCARM 2095; format: functional
[30] = system: RAW264.7; test: Anti-inflammatory activity in mouse RAW264.7 cells assessed as reduction in LPS-induced MCP-1 mRNA expression at 10 uM after 3 hrs by RT-PCR analysis; format: functional, cell-based
[31] = system: Pseudomonas aeruginosa; test: Synergistic antibacterial activity against multidrug-resistant Pseudomonas aeruginosa CCARM 2095 after 72 hrs in presence of chloramphenicol by chequerboard assay; format: functional
[32] = system: Erythrocyte; test: Hemolytic activity in human RBC after 1 hr; format: ADME, cell-based
[33] = system: Escherichia coli; test: Antibacterial activity against Escherichia coli KCTC 1682 in presence of 1 mM MgCl2 after 24 hrs; format: functional; settings: KCTC 1682, 24 h
[34] = system: Pseudomonas aeruginosa; test: Synergistic antibacterial activity against multidrug-resistant Pseudomonas aeruginosa CCARM 2095 after 72 hrs in presence of ciprofloxacin by chequerboard assay; format: functional
[35] = system: Escherichia coli; test: Antibacterial activity against Escherichia coli KCTC 1682 in presence of 4.5 mM KCl after 24 hrs; format: functional; settings: KCTC 1682, 24 h
[36] = system: NIH3T3; test: Cytotoxicity against mouse NIH/3T3 cells up to 128 uM after 48 hrs by MTT assay; format: cell-based; settings: nih3t3, 48 h
[37] = system: Enterococcus faecium; test: Potency index, ratio of melittin MIC to compound MIC for Vancomycin-resistant Enterococcus faecium ATCC 51559; format: functional
[38] = system: RAW264.7; test: Anti-inflammatory activity in mouse RAW264.7 cells assessed as reduction in LPS-induced TNF-alpha mRNA expression at 10 uM after 3 hrs by RT-PCR analysis; format: functional, cell-based
[39] = system: Staphylococcus aureus; test: Antibacterial activity against Staphylococcus aureus KCTC 1621 in presence of 1 mM MgCl2 after 24 hrs; format: functional; settings: KCTC 1621, 24 h
[40] = system: Pseudomonas aeruginosa; test: Potency index, ratio of melittin MIC to compound MIC for multidrug-resistant Pseudomonas aeruginosa CCARM 2109; format: functional
[41] = system: Escherichia coli; test: Antibacterial activity against Escherichia coli KCTC 1682 in presence of 150 mM NaCl after 24 hrs; format: functional; settings: KCTC 1682, 24 h
[42] = system: Staphylococcus aureus; test: Potency index, ratio of melittin MIC to compound MIC for methicillin resistant Staphylococcus aureus CCARM 3089; format: functional
[43] = system: Lipid bilayer; test: Binding affinity to EYPE/EYPG small unilamellar vesicles assessed as intrinsic tryptophan acrylamide quenching constant by fluorescence assay (reference value: 5.95 to 7.56 /M)
[44] = system: RAW264.7; test: Anti-inflammatory activity in mouse RAW264.7 cells assessed as reduction in LPS-induced TNF-alpha production at 10 to 20 uM preincubated for 1 hr followed by LPS stimulation measured after 6 hrs by ELISA; format: functional, cell-based
[45] = system: Enterococcus faecium; test: Potency index, ratio of LL-37 MIC to compound MIC for Vancomycin-resistant Enterococcus faecium ATCC 51559; format: functional

With CC[C@H](C)[C@H](NC(=O)[C@H](CCCNC(=N)N)NC(=O)[C@@H](N)CCCCN)C(=O)N[C@H](C(=O)N[C@@H](CCCCN)C(=O)N[C@@H](CC(C)C)C(=O)N[C@H](CC(C)C)C(=O)N[C@@H](CC(C)C)C(=O)N[C@@H](CCCCN)C(=O)N[C@@H](Cc1c[nH]c2ccccc12)C(=O)N[C@@H](CC(C)C)C(=O)N[C@@H](CCCNC(=N)N)C(N)=O)C(C)C the Ratio [1] was 2 - 4, the Ratio [2] was 2 - 4 and the Ratio [3] was 2 - 4. For the same compound, the selectivity ratio [4] was 30, the Ratio [5] was 2 - 4 and the MIC [6] was 16 µM. The MIC [7] was 4 µM (≈ 6.26 µg/mL), the MIC [8] was 4 µM (≈ 6.26 µg/mL) and the MIC [9] was 4 µM. The MIC [10] was 4 µM (≈ 6.26 µg/mL), the Ratio [11] was 2 - 4 and the Ratio [12] was 2 - 4. For the same compound, the MBIC90 [13] was 8 µM, the MIC [14] was 8 µM (≈ 12.5 µg/mL) and the MIC [15] was 2 µM (≈ 3.13 µg/mL). The Ratio [16] was 2 - 8, the Activity [17] was “Active” and the MIC [18] was 2 µM. For the same compound, the Activity [19] was “Active”, the “fractional inhibitory concentration index (FICI)” value [20] was 0.3125 and the MIC [21] was 4 µM (≈ 6.26 µg/mL). For the same compound, the MIC [22] was 2 µM (≈ 3.13 µg/mL), the MIC [23] was 4 µM (≈ 6.26 µg/mL) and the MIC [24] was 16 µM. For the same compound, the Ratio [25] was 2 - 4, the Activity [26] was “Active” and the MIC [27] was 2 µM (≈ 3.13 µg/mL). The MIC [28] was 8 µM (≈ 12.5 µg/mL), the “fold change (FC)” value [29] was 4 - 8 and the Activity [30] was “Active”. The “fractional inhibitory concentration index (FICI)” value [31] was 0.5, the MHC10 [32] was 111 µM and the MIC [33] was 8 µM. The “fractional inhibitory concentration index (FICI)” value [34] was 0.3125, the MIC [35] was 4 µM and the Activity [36] was “Non-Toxic”. For the same compound, the Ratio [37] was 2 - 4, the Activity [38] was “Active” and the MIC [39] was 8 µM. The Ratio [40] was 2 - 4, the MIC [41] was 4 µM and the Ratio [42] was 2 - 4. For the same compound, the KSV [43] was 1.01 M⁻¹, the Activity [44] was “Active” and the Ratio [45] was 2 - 4.
